The values below come from patent EP0315434A2, “Pyridoxal hydrazone derivatives their production and use and pharmaceutical compositions containing the same” (YISSUM RESEARCH DEVELOPMENT COMPANY OF THE HEBREW …, priority 1987, dated 1989).

The conditions of series [1]: background statement, "probably"; cited from earlier work.
Series [2] is described as follows: Fate of ⁵⁹Fe tracer incubated with chelator and injected into normal rats (radioiron distribution and excretion). Format: in vivo. To be noted: for Radioiron Distribution in % Feces / Radioiron Distribution in % Total excretion / Radioiron Distribution in % Urine / Radioiron Distribution in % Blood / Radioiron Distribution in % Liver / Radioiron Distribution in % Spleen: 10 mg chelator with ⁵⁹Fe, subcutaneous, normal rats; for Radioiron Distribution in % Feces / Radioiron Distribution in % Total excretion / Radioiron Distribution in % Urine: cumulative within 4 days; for Radioiron Distribution in % Blood / Radioiron Distribution in % Liver / Radioiron Distribution in % Spleen: within 4 days; for TOTAL EXCRETION OF RADIO-IRON IN RATS %: as in Table 1. Here is the method:
Table 1 describes the fate of ⁵⁹Fe tracer reincubated […] with 10 mg of some of the above iron chelators and then injected subcutaneously to groups of 4 normal rats. Numbers represent mean cumulative radioiron excretion within 4 days of injection. For comparison, spontaneous excretion of radioiron and the excretion of desferrioxamine (DF) bound radioiron are also given. […]
Spleen and kidney were counted as whole organs.
The excretion of radioiron following ⁵⁹Fe labelling was measured in animals confined to solitary metabolic cages with stainless steel grid bottoms, and stool and urine were collected separately.

Series [3] in a line: Mobilization of iron from hepatic parenchymal stores in hypertransfused rats labelled with ⁵⁹Fe-ferritin. Type of series: in vivo. To be noted: for ORGAN DISTRIBUTION AND EXCRETION OF ⁵⁹Fe-FERRITIN (%) BLOOD / ORGAN DISTRIBUTION AND EXCRETION OF ⁵⁹Fe-FERRITIN (%) LIVER / ORGAN DISTRIBUTION AND EXCRETION OF ⁵⁹Fe-FERRITIN (%) STOOL / ORGAN DISTRIBUTION AND EXCRETION OF ⁵⁹Fe-FERRITIN (%) TOTAL EXCRETION / ORGAN DISTRIBUTION AND EXCRETION OF ⁵⁹Fe-FERRITIN (%) URINE: after 4 days, Desferral i.p., route not printed for Ex. 4 and Ex. 5, mean ± SD. As to the method: In each case, 40 mg of each compound was administered per animal in a single subcutaneous injection.
In vivo studies of chelating efficiency were performed in two models: (a) normal rats injected i.p. with 10 mg of either desferrioxamine B (DF), PIH of the prior art, PPH of Example 4 or PPHE from Example 5 labelled in vitro with ⁵⁹Fe; and (b) hypertransfused rats receiving twice 4 ml/100gm packed RBC intravenously 5 and 3 days prior to study (hematocrit 68%) and labelled with ⁵⁹Fe-ferritin injected i.v. 24h prior to iron chelating therapy as described previously. Drugs to be tested in the ⁵⁹Fe-ferritin model were given either by i.p. injection or by gastric tube at a dose of 40 mg per animal. Radioiron excretion and organ distribution were determined after 4 days
The radioactivity of spleen, weighed portions of the liver, and 1 ml samples of blood were determined in an automatic well type scintillation counter (Packard Autogamma Model 5360 Scintillation spectrometer). Spleen and kidney were counted as whole organs.
Whole body counts were performed in a small animal counter (Packard Model 446 Armac) scintillation detector. The excretion of radioiron following ⁵⁹Fe labelling was measured in animals confined to solitary metabolic cages with stainless steel grid bottoms, and stool and urine were collected separately.

The conditions of series [4]: stated as known; cited from earlier work.
Series [5] deals with non-resistant strain of P. falciparum. The following applies: molar concentration 1.5 x 10⁻⁵, according to Raventos-Suarez; cited from earlier work.
Series [6] can be described thus: Iron chelation in H₂O (spectrophotometric, apparent K), ferrous ions. Type of series: physicochemical.
For series [7] the following is noted: rats.
Series [8] concerns chloroquine-resistant strain of P. falciparum (FCR-3). The following applies: molar concentration 2 x 10⁻⁵; cultured 3 days. Here is the method: Cultures of a chloroquine-resistant strain of P. falciparum (FCR-3), cultivated in human erythrocytes (a technique widely used at the Kuvin Centre, Hebrew University Hadassah Medical School), were suspended in solutions containing chelators and then cultured for 3 days. Growth of parasites was determined by either slide counts or by incorporation of ³H-hypoxanthine. The parasite growth was monitored by microscopic slide counts. […]

Setting [9] is: 40 mg i.p., hypertransfused rats, 4 days.
[10] abbreviates: hypertransfused rats, 40 mg per animal.
Where [11] appears, read: hypertransfused rats, 40 mg per animal, listed as desferral.
Where [12] appears, read: hypertransfused rats, 40 mg per animal, single subcutaneous injection.
[13] abbreviates: oral administration of 40 mg, hypertransfused rats.

Regarding `CC(=O)N(O)CCCCCNC(=O)CCC(=O)N(O)CCCCCNC(=O)CCC(=O)N(O)CCCCCN` [Desferral, desferrioxamine, reference compound], the “half life in vivo” value in series [1] is on record as “less than 1 hr”. In series [2], the “Radioiron Distribution in % Feces” value was determined as 13.5±0.7%, the “Radioiron Distribution in % Total excretion” value amounted to 85.4±4.3%, the “Radioiron Distribution in % Urine” value was found to be 71.9±3.6% and the “Radioiron Distribution in % Blood” value is given as 8.7±1.6%. In series [2], the “Radioiron Distribution in % Liver” value is 2.7±0.3%, the “Radioiron Distribution in % Spleen” value is 0.14±0.03% and the “TOTAL EXCRETION OF RADIO-IRON IN RATS %” value came to 85.4± 4.3%. For the same molecule, the “reduction in hepatocellular (hepatic) radioactivity” value in series [3] (setting [9]) is listed as 20%. Besides, in series [3] (setting [10]), the “ORGAN DISTRIBUTION AND EXCRETION OF ⁵⁹Fe-FERRITIN (%) BLOOD” value was 4.5±0.4%, the “ORGAN DISTRIBUTION AND EXCRETION OF ⁵⁹Fe-FERRITIN (%) LIVER” value was determined as 70.4± 6.0%, the “ORGAN DISTRIBUTION AND EXCRETION OF ⁵⁹Fe-FERRITIN (%) STOOL” value turned out to be 23.3±0.1% and the “ORGAN DISTRIBUTION AND EXCRETION OF ⁵⁹Fe-FERRITIN (%) TOTAL EXCRETION” value was 24.5±0.1%. In addition, the “ORGAN DISTRIBUTION AND EXCRETION OF ⁵⁹Fe-FERRITIN (%) URINE” value in series [3] (hypertransfused rats, 40 mg per animal, listed as DESFERRAL) is on record as 1.2±0%. Further, in series [3] (setting [11]), the “ORGAN DISTRIBUTION AND EXCRETION OF ⁵⁹Fe-FERRITIN (%) STOOL” value is 23% and the “ORGAN DISTRIBUTION AND EXCRETION OF ⁵⁹Fe-FERRITIN (%) URINE” value is listed as “negligible”. Also, in series [3] (setting [12]), the “Ferritin-⁵⁹Fe distribution in % Blood” value was 4.5±0.4%, the “Ferritin-⁵⁹Fe distribution in % Feces” value was determined as 23.3±0.1%, the “Ferritin-⁵⁹Fe distribution in % Liver” value was determined as 70.4±6.0% and the “Ferritin-⁵⁹Fe distribution in % Residual” value was determined as 0%. For the same molecule, in series [3] (setting [12]), the “Ferritin-⁵⁹Fe distribution in % Spleen” value is 0.6±0.1% and the “Ferritin-⁵⁹Fe distribution in % Urine” value is given as 1.2±0%. The molecule also showed a total radioiron excretion in series [3] (oral, 40 mg drug/animal by gastric tube, hypertransfused ⁵⁹Fe-ferritin labelled rats) of 6.0%. Moreover, in series [4], the oral efficiency result is reported as “no oral efficiency”. Moreover, in series [5], the “INHIBITION OF GROWTH OF P. falciparum % INHIBITION” value is on record as “complete after 96 Hrs. ^(*)”.

With `CCOC(=O)[n+]1cc(CO)c(C=NNc2ncccn2)c(O)c1C` [Ex. 5, 1-(N-ethoxycarbonylpyridoxylidenium]-2-[2′-pyrimidyl] hydrazine], in series [6] (compared with PIH), the “effectiveness in the chelation test relative to prior art PIH” value is reported as “about sixty times more effective”. Moreover, the “higher affinity for ferrous than for ferric ions” value in series [6] (ferrous versus ferric) was approximately 30 fold. In addition, the tolerance entry in series [7] (100 mg/kg/d by oral or parenteral administration) is “well tolerated”. In addition, the “biochemical tests of hepatic and renal function, complete blood counts, hepatic and renal histology” value in series [7] (after 3 months of continuous treatment) is given as “no indications of toxicity”. In addition, in series [2], the “Radioiron Distribution in % Feces” value is on record as 67.3±2.4%, the “Radioiron Distribution in % Total excretion” value is 96.2±3.4%, the “Radioiron Distribution in % Urine” value turned out to be 28.9±1.0% and the “Radioiron Distribution in % Blood” value was found to be 4.2±0.2%. Also, in series [2], the “Radioiron Distribution in % Liver” value stood at 2.9±0.2%, the “Radioiron Distribution in % Spleen” value came out at 0.06±0.03% and the “TOTAL EXCRETION OF RADIO-IRON IN RATS %” value was found to be 96.2± 3.4%. The “INHIBITION OF GROWTH OF DRUG-RESISTANT STRAIN OF P. falciparum % INHIBITION” value in series [8] is reported as 90.3%. Moreover, in series [3] (setting [9]), the “excretion of the radioiron label in the stool” value is given as 72% and the “reduction in hepatocellular (hepatic) radioactivity” value came out at 69%. Further, in series [3] (setting [10]), the “ORGAN DISTRIBUTION AND EXCRETION OF ⁵⁹Fe-FERRITIN (%) BLOOD” value is on record as 3.1±0.6%, the “ORGAN DISTRIBUTION AND EXCRETION OF ⁵⁹Fe-FERRITIN (%) LIVER” value is recorded as 63.8± 8.7%, the “ORGAN DISTRIBUTION AND EXCRETION OF ⁵⁹Fe-FERRITIN (%) STOOL” value was 27.6±1.3% and the “ORGAN DISTRIBUTION AND EXCRETION OF ⁵⁹Fe-FERRITIN (%) TOTAL EXCRETION” value is recorded as 28.1±1.3%. Besides, the “ORGAN DISTRIBUTION AND EXCRETION OF ⁵⁹Fe-FERRITIN (%) URINE” value in series [3] (setting [10]) is recorded as 0.5±0%. Further, the “greater oral chelating efficiency than an identical dose of parenteral DF” value in series [3] (oral 40 mg versus parenteral DF 40 mg) is on record as “roughly 20%”. In series [3] (setting [13]), the excretion of radioiron is listed as 28% and the “reduction in hepatic ⁵⁹Fe” value amounted to 27%.
